The values below come from ChEMBL document CHEMBL5634117 (Eur J Med Chem, 2023).

Structures are written as SMILES. The source made the active and inactive calls. No cut-off for these calls is given here.

Assay [1] relates to K562. Description: Induction of cell cycle arrest in human K562 cells assessed as accumulation of cells at SubG1 phase at 0.64 uM measured after 24 hrs by PI staining based flow cytometry analysis (reference value: 2.21%). The assay is classed as functional. (In general: Flow cytometry measures light scatter and fluorescence of single cells or particles in a stream.)
The subject of assay [2] is K562. As to the kind of experiment: Induction of cell cycle arrest in human K562 cells assessed as accumulation of cells at G0/G1 phase at 2.56 uM measured after 24 hrs by PI staining based flow cytometry analysis (reference value: 46.72%). The assay is classed as functional.
The subject of assay [3] is K562. As to the kind of experiment: Induction of cell cycle arrest in human K562 cells assessed as accumulation of cells at G2/M phase at 0.64 uM measured after 24 hrs by PI staining based flow cytometry analysis (reference value: 25.62%). It counts as functional.
For assay [4], the system named is K562. As to the kind of experiment: Induction of cell cycle arrest in human K562 cells assessed as accumulation of cells at G0/G1 phase at 0.64 uM measured after 24 hrs by PI staining based flow cytometry analysis (reference value: 46.72%). The assay is classed as functional.
For assay [5], the system named is K562. Description: Induction of cell cycle arrest in human K562 cells assessed as accumulation of cells at S phase at 2.56 uM measured after 24 hrs by PI staining based flow cytometry analysis (reference value: 24.75%). The assay is classed as functional.
For assay [6], the system named is K562. As to the kind of experiment: Induction of cell cycle arrest in human K562 cells assessed as accumulation of cells at G2/M phase at 2.56 uM measured after 24 hrs by PI staining based flow cytometry analysis (reference value: 25.62%). It counts as functional.
Assay [7] has as its system K562. Description: Induction of cell cycle arrest in human K562 cells assessed as accumulation of cells at G2/M phase at 1.28 uM measured after 24 hrs by PI staining based flow cytometry analysis (reference value: 25.62%). The assay is classed as functional.
Assay [8] concerns K562. Description: Induction of cell cycle arrest in human K562 cells assessed as accumulation of cells at SubG1 phase at 2.56 uM measured after 24 hrs by PI staining based flow cytometry analysis (reference value: 2.21%). It counts as functional.
In assay [9] the test system is K562. Description: Induction of cell cycle arrest in human K562 cells assessed as accumulation of cells at S phase at 1.28 uM measured after 24 hrs by PI staining based flow cytometry analysis (reference value: 24.75%). It counts as functional.
Assay [10] deals with K562. Description: Induction of apoptosis in human K562 cells assessed as late apoptotic cells at 2.56 uM incubated for 24 hrs by annexinV and propidium iodide staining based flow cytometry analysis (reference value: 0.82%). The assay is classed as functional.
The test system of assay [11] is K562. Description: Induction of autophagy in human K562 cells assessed as increase in beclin-1 level at 1.28 uM measured after 24 hrs by Western blotting analysis. The assay is classed as functional, cell-based.
In assay [12] the test system is K562. As to the kind of experiment: Induction of cell cycle arrest in human K562 cells assessed as accumulation of cells at G0/G1 phase at 2.5 uM measured after 24 hrs by PI staining based flow cytometry analysis (reference value: 46.67%). The assay is classed as functional.
Assay [13] relates to K562. Description: Induction of apoptosis in human K562 cells assessed as early apoptotic cells at 2.5 uM incubated for 24 hrs by annexinV and propidium iodide staining based flow cytometry analysis (reference value: 0.42%). It counts as functional.
For assay [14], the system named is K562. As to the kind of experiment: Induction of cell cycle arrest in human K562 cells assessed as accumulation of cells at SubG1 phase at 5 uM measured after 24 hrs by PI staining based flow cytometry analysis (reference value: 3.43%). It counts as functional.
In assay [15] the test system is K562. As to the kind of experiment: Induction of cell cycle arrest in human K562 cells assessed as accumulation of cells at G2/M phase at 2.56 uM measured after 24 hrs by PI staining based flow cytometry analysis (reference value: 29.09%). It counts as functional.
In assay [16] the test system is K562. As to the kind of experiment: Induction of cell cycle arrest in human K562 cells assessed as accumulation of cells at G2/M phase at 1.28 uM measured after 24 hrs by PI staining based flow cytometry analysis (reference value: 29.092%). It counts as functional.
The subject of assay [17] is K562. As to the kind of experiment: Induction of cell cycle arrest in human K562 cells assessed as accumulation of cells at G2/M phase at 5 uM measured after 24 hrs by PI staining based flow cytometry analysis (reference value: 29.44%). The assay is classed as functional.
Assay [18] deals with K562. As to the kind of experiment: Induction of cell cycle arrest in human K562 cells assessed as accumulation of cells at S phase at 1.28 uM measured after 24 hrs by PI staining based flow cytometry analysis (reference value: 21.74%). The assay is classed as functional.
In assay [19] the test system is K562. Description: Induction of cell cycle arrest in human K562 cells assessed as accumulation of cells at G0/G1 phase at 1.28 uM measured after 24 hrs by PI staining based flow cytometry analysis (reference value: 46.71%). It counts as functional.
Assay [20] deals with K562. As to the kind of experiment: Induction of cell cycle arrest in human K562 cells assessed as accumulation of cells at G0/G1 phase at 5 uM measured after 24 hrs by PI staining based flow cytometry analysis (reference value: 46.67%). The assay is classed as functional.
Assay [21] has as its system K562. Description: Induction of apoptosis in human K562 cells assessed as early apoptotic cells at 1.28 uM incubated for 24 hrs by annexinV and propidium iodide staining based flow cytometry analysis (reference value: 0.42%). It counts as functional.
For assay [22], the system named is K562. As to the kind of experiment: Induction of apoptosis in human K562 cells assessed as early apoptotic cells at 1.25 uM incubated for 24 hrs by annexinV and propidium iodide staining based flow cytometry analysis (reference value: 0.42%). It counts as functional.
The subject of assay [23] is K562. Description: Induction of apoptosis in human K562 cells assessed as early apoptotic cells at 0.64 uM incubated for 24 hrs by annexinV and propidium iodide staining based flow cytometry analysis (reference value: 0.42%). The assay is classed as functional.
Assay [24] concerns K562. As to the kind of experiment: Induction of cell cycle arrest in human K562 cells assessed as accumulation of cells at G2/M phase at 2.5 uM measured after 24 hrs by PI staining based flow cytometry analysis (reference value: 29.44%). It counts as functional.
Assay [25] has as its system K562. As to the kind of experiment: Induction of cell cycle arrest in human K562 cells assessed as accumulation of cells at S phase at 1.25 uM measured after 24 hrs by PI staining based flow cytometry analysis (reference value: 20.42%). The assay is classed as functional.
The subject of assay [26] is K562. Description: Induction of cell cycle arrest in human K562 cells assessed as accumulation of cells at G2/M phase at 1.25 uM measured after 24 hrs by PI staining based flow cytometry analysis (reference value: 29.44%). It counts as functional.
The subject of assay [27] is K562. As to the kind of experiment: Induction of apoptosis in human K562 cells assessed as late apoptotic cells at 2.56 uM incubated for 24 hrs by annexinV and propidium iodide staining based flow cytometry analysis (reference value: 1.34%). It counts as functional.
In assay [28] the test system is K562. As to the kind of experiment: Induction of cell cycle arrest in human K562 cells assessed as accumulation of cells at G0/G1 phase at 0.64 uM measured after 24 hrs by PI staining based flow cytometry analysis (reference value: 46.71%). The assay is classed as functional.
For assay [29], the system named is K562. As to the kind of experiment: Induction of cell cycle arrest in human K562 cells assessed as accumulation of cells at SubG1 phase at 2.56 uM measured after 24 hrs by PI staining based flow cytometry analysis (reference value: 2.48%). The assay is classed as functional.
The subject of assay [30] is K562. Description: Induction of apoptosis in human K562 cells assessed as late apoptotic cells at 1.28 uM incubated for 24 hrs by annexinV and propidium iodide staining based flow cytometry analysis (reference value: 1.34%). It counts as functional.
Assay [31] deals with K562. As to the kind of experiment: Induction of apoptosis in human K562 cells assessed as late apoptotic cells at 0.64 uM incubated for 24 hrs by annexinV and propidium iodide staining based flow cytometry analysis (reference value: 1.34%). It counts as functional.
In assay [32] the test system is K562. Description: Induction of cell cycle arrest in human K562 cells assessed as accumulation of cells at SubG1 phase at 1.28 uM measured after 24 hrs by PI staining based flow cytometry analysis (reference value: 2.48%). It counts as functional.

With `CC(C)(C)n1cc(-c2ccnc(NCCCNS(=O)(=O)c3ccc(Cl)cc3)c2)c(-c2cccc(O)c2)n1`, the Activity in the assay with K562 [1] is given as 2.16%; in the assay on K562 [2] it was 0.17%; with K562 [3] it was 51.01%; with K562 [4], 25.21%; in the assay with K562 [5] it was 4.89%; with K562 [6] it was 94.29%. Moreover, the Activity in the assay on K562 [7] is 58.95%; in the assay with K562 [8], 0.07%; in the assay on K562 [9], 32.68%; with K562 [10], 0.37%. For the same compound, in the assay on K562 [11], the outcome was Active.
Take `O=C1c2ccccc2-c2n[nH]c3cccc1c23`: the Activity in the assay on K562 [12] is 30.88%; in the assay on K562 [13] it was 1.17%; in the assay with K562 [14], 4.01%; in the assay with K562 [15], 37.88%; with K562 [16], 47.55%; with K562 [17], 47.08%. Moreover, the Activity in the assay on K562 [18] is 16.61%; in the assay on K562 [19], 28.15%; in the assay with K562 [20] it was 28.76%; in the assay with K562 [21] it was 0.66%; in the assay with K562 [22] it was 0.72%; with K562 [23] it was 1.59%. Besides, the Activity in the assay with K562 [24] was found to be 45.34%; in the assay on K562 [25], 19.52%; in the assay with K562 [26] it was 41.64%; in the assay on K562 [27], 3.7%; with K562 [28], 27.69%; with K562 [29] it was 2.85%. In addition, the Activity came out at 1.25% in the assay with K562 [30], 1.14% with K562 [31] and 7.26% in the assay with K562 [32].
